Experiments:
Experiment in all cases: relative viability (nuclei count vs DMSO), 5 days (fraction); higher = more cells survive
Dactolisib + Foretinib = compound: Cn1c(=O)n(-c2ccc(C(C)(C)C#N)cc2)c2c3cc(-c4cnc5ccccc5c4)ccc3ncc21 [Dactolisib] + COc1cc2c(Oc3ccc(NC(=O)C4(C(=O)Nc5ccc(F)cc5)CC4)cc3F)ccnc2cc1OCCCN1CCOCC1 [Foretinib] (partner 0.25 µM)
Summary of the method: (§1)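 Relative viability was taken as the ratio of nuclei in treated wells to nuclei in vehicle wells. Lung cancer cell lines in 1536-well plates received compounds by pin tool one day after seeding, either one drug alone or a fixed anchor-drug dose plus five library-drug doses (not always all listed) in √10 steps. Nuclei were counted on 4× images after 5 days of treatment, and values are medians of duplicate plates.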

AZ505 + Pemetrexed = compound: C1CCC(CC1)N(CCNCCC2=C3C(=C(C=C2)O)NC(=O)CO3)C(=O)CCNCCC4=CC(=C(C=C4)Cl)Cl [AZ505] + Nc1nc2[nH]cc(CCc3ccc(C(=O)N[C@@H](CCC(=O)O)C(=O)O)cc3)c2c(=O)[nH]1 [Pemetrexed] (partner 0.2 µM)
Summary of the method: as §1

Dactolisib + Pemetrexed = compound: Cn1c(=O)n(-c2ccc(C(C)(C)C#N)cc2)c2c3cc(-c4cnc5ccccc5c4)ccc3ncc21 [Dactolisib] + Nc1nc2[nH]cc(CCc3ccc(C(=O)N[C@@H](CCC(=O)O)C(=O)O)cc3)c2c(=O)[nH]1 [Pemetrexed] (partner 0.2 µM)
Summary of the method: as §1

Dactolisib + Trametinib = compound: Cn1c(=O)n(-c2ccc(C(C)(C)C#N)cc2)c2c3cc(-c4cnc5ccccc5c4)ccc3ncc21 [Dactolisib] + CC(=O)Nc1cccc(-n2c(=O)n(C3CC3)c(=O)c3c(Nc4ccc(I)cc4F)n(C)c(=O)c(C)c32)c1 [Trametinib] (partner 0.02 µM)
Summary of the method: as §1

| Cell Line | relative viability (Dactolisib + Foretinib; first compound 0.002 µM) | relative viability (Dactolisib + Foretinib; first compound 0.006325 µM) | relative viability (Dactolisib + Foretinib; first compound 0.02 µM) | relative viability (Dactolisib + Foretinib; first compound 0.06325 µM) | relative viability (Dactolisib + Foretinib; first compound 0.2 µM) | relative viability (AZ505 + Pemetrexed; first compound 0.08 µM) | relative viability (AZ505 + Pemetrexed; first compound 0.253 µM) | relative viability (AZ505 + Pemetrexed; first compound 0.8 µM) | relative viability (AZ505 + Pemetrexed; first compound 2.53 µM) | relative viability (AZ505 + Pemetrexed; first compound 8 µM) | relative viability (Dactolisib + Pemetrexed; first compound 0.002 µM) | relative viability (Dactolisib + Pemetrexed; first compound 0.006325 µM) | relative viability (Dactolisib + Pemetrexed; first compound 0.02 µM) | relative viability (Dactolisib + Pemetrexed; first compound 0.06325 µM) | relative viability (Dactolisib + Pemetrexed; first compound 0.2 µM) | relative viability (Dactolisib + Trametinib; first compound 0.002 µM) | relative viability (Dactolisib + Trametinib; first compound 0.006325 µM) | relative viability (Dactolisib + Trametinib; first compound 0.02 µM) | relative viability (Dactolisib + Trametinib; first compound 0.06325 µM) | relative viability (Dactolisib + Trametinib; first compound 0.2 µM) |
| --- | --- | --- | --- | --- | --- | --- | --- | --- | --- | --- | --- | --- | --- | --- | --- | --- | --- | --- | --- | --- |
| NCI-H2342 | 1.1 | 0.96 | 0.855 | 0.679 | 0.525 | 0.711 | 0.737 | 0.836 | 0.776 | 0.853 | 0.75 | 0.833 | 0.721 | 0.779 | 0.599 | 0.825 | 0.72 | 0.811 | 0.538 | 0.54 |
| HCC-15 | 1.02 | 1.01 | 0.936 | 0.548 | 0.446 | 0.209 | 0.231 | 0.22 | 0.218 | 0.24 | 0.215 | 0.22 | 0.26 | 0.25 | 0.231 | 0.383 | 0.346 | 0.365 | 0.215 | 0.162 |
| A-427 | 1.2 | 1.05 | 0.873 | 0.56 | 0.46 | 0.964 | 0.961 | 0.904 | 0.948 | 1.01 | 1.09 | 1.03 | 0.968 | 0.8 | 0.644 | 0.669 | 0.637 | 0.694 | 0.4 | 0.369 |
| NCI-H2228 | 0.875 | 0.675 | 0.406 | 0.191 | 0.181 | 0.334 | 0.353 | 0.366 | 0.356 | 0.283 | 0.35 | 0.352 | 0.324 | 0.252 | 0.144 | 0.688 | 0.4 | 0.383 | 0.218 | 0.144 |
| NCI-H1734 | 0.837 | 0.773 | 0.805 | 0.467 | 0.284 | 0.405 | 0.351 | 0.392 | 0.398 | 0.416 | 0.335 | 0.436 | 0.415 | 0.36 | 0.317 | 0.69 | 0.557 | 0.624 | 0.374 | 0.25 |
| SK-LU-1 | 0.806 | 0.713 | 0.575 | 0.382 | 0.245 | 0.671 | 0.72 | 0.684 | 0.799 | 0.757 | 0.944 | 0.913 | 0.874 | 0.747 | 0.439 | 0.476 | 0.657 | 0.392 | 0.34 | 0.283 |
| PC-14 | 0.982 | 0.97 | 0.973 | 0.592 | 0.399 | 0.122 | 0.138 | 0.127 | 0.146 | 0.166 | 0.0904 | 0.129 | 0.192 | 0.197 | 0.145 | 0.81 | 0.583 | 0.367 | 0.0961 | 0.0834 |
| NCI-H1915 | 1.19 | 1.06 | 1.08 | 0.832 | 0.467 | 0.541 | 0.492 | 0.534 | 0.614 | 0.525 | 0.355 | 0.508 | 0.455 | 0.425 | 0.42 | 0.32 | 0.296 | 0.304 | 0.229 | 0.178 |
| NCI-H1666 | 0.968 | 0.993 | 0.987 | 0.791 | 0.762 | 0.81 | 0.835 | 0.736 | 0.85 | 0.841 | 0.849 | 0.892 | 0.858 | 0.736 | 0.802 | 0.855 | 0.804 | 0.835 | 0.734 | 0.742 |
| HCC-366 | 0.914 | 0.986 | 0.955 | 0.94 | 0.368 | 0.142 | 0.174 | 0.179 | 0.2 | 0.16 | 0.104 | 0.183 | 0.229 | 0.173 | 0.147 | 0.367 | 0.299 | 0.238 | 0.107 | 0.101 |
| SK-MES-1 | 1.04 | 0.818 | 0.906 | 0.571 | 0.397 | 0.81 | 0.909 | 0.875 | 0.949 | 0.882 | 0.993 | 0.837 | 0.847 | 0.417 | 0.367 | 0.581 | 0.528 | 0.467 | 0.355 | 0.263 |
| NCI-H661 | 1.04 | 1.01 | 0.977 | 0.439 | 0.459 | 0.834 | 0.928 | 0.865 | 0.931 | 0.928 | 0.823 | 0.932 | 0.854 | 0.498 | 0.515 | 0.552 | 0.483 | 0.486 | 0.336 | 0.337 |
| PC-3 [JPC-3] | 1.13 | 1.06 | 1.03 | 0.816 | 0.565 | 0.97 | – | 1.18 | 1.09 | 1.27 | 1.35 | 1.11 | 1 | 1.26 | 0.555 | 0.718 | 0.673 | 0.76 | 0.595 | 0.451 |
